ChEMBL document CHEMBL6092221, “Discovery of a Novel Macrocyclic Noncovalent CDK7 Inhibitor for Cancer Therapy” (J Med Chem, 2024)

Key:
[1] = Clearance in dog at 0.2 mg/kg, iv; assay type: ADME, organism-based, Canis lupus familiaris; conditions: in vivo
[2] = Half life in Sprague-Dawley rat at 30 mg/kg, po; assay type: ADME, organism-based; conditions: in vivo
Cytochrome P450 3A4 = Cytochrome P450 3A4 (Homo sapiens, UniProt P08684); experiment: Inhibition of CYP3A4 (unknown origin); assay type: ADME
[3] = AUC(0 to t) in female Balb/c nude mouse at 5 mg/kg, po; assay type: ADME, organism-based; conditions: in vivo
HCC70 = experiment: Antitumor activity against human HCC70 cells xenografted in female nu/nu mouse assessed as tumor growth inhibition at 3 mg/kg, po administered once daily and measured for 4 weeks; assay type: functional; conditions: HCC70, 672 h, read-out: TGI
[4] = target: Serine/threonine-protein kinase TAO1 (Homo sapiens) (UniProt Q7L7X3); experiment: Inhibition of TAOK1 (unknown origin) at 200 nM relative to control; values are per cent of control
[5] = target: Serine/threonine-protein kinase TAO1 (Homo sapiens, UniProt Q7L7X3); experiment: Inhibition of TAOK1 (unknown origin)
[6] = Toxicity in female Balb/c nude mouse xenografted with human OVCAR-3 cells assessed as body weight loss at 2 to 20 mg/kg, po administered once daily and measured for 3 weeks; assay type: organism-based; conditions: in vivo, 504 h, dose 2-20 mg/kg
[7] = Plasma protein binding in rat assessed as unbound fraction; assay type: ADME, cell-free
[8] = target: Cyclin-dependent kinase 7 (Homo sapiens) (UniProt P50613); experiment: Inhibition of CDK7 (unknown origin) at 200 nM relative to control; values are per cent of control
Mus musculus = experiment: Downregulation of Myc protein in female Balb/c nude mouse xenografted with human HCC70 cells administered once daily for 7 days; assay type: functional; conditions: dose 2-10 mg/kg, time 7.0 day
OVCAR-3 = experiment: Antitumor activity against human OVCAR-3 cells xenografted in female Balb/c nude mouse assessed as tumor growth inhibition at 10 mg/kg, po administered once daily and measured on day 22; assay type: functional; conditions: OVCAR-3, 528 h, time 22 day, read-out: TGI
[9] = Half life in human HCC70 cells xenografted in female nu/nu mouse plasma at 3 mg/kg, po administered once daily; assay type: ADME, organism-based
[10] = Half life in rat at 5 mg/kg, po; assay type: ADME, organism-based; conditions: in vivo
[11] = Oral bioavailability in female Balb/c nude mouse at 5 mg/kg; assay type: ADME, organism-based; conditions: in vivo
[12] = Plasma protein binding in human assessed as unbound fraction; assay type: ADME, cell-free
CDK18/Cyclin Y = CDK18/Cyclin Y (Homo sapiens, UniProt Q07002+Q8ND76); experiment: Inhibition of CDK18/Cyclin Y (unknown origin) at 200 nM relative to control; values are per cent of control
[13] = target: Serine/threonine-protein kinase D2 (Homo sapiens) (UniProt Q9BZL6); experiment: Inhibition of PRKD2 (unknown origin) at 200 nM relative to control; values are per cent of control
[14] = target: Cyclin-dependent kinase 14/Cyclin-Y (Homo sapiens) (UniProt O94921+Q8ND76); experiment: Inhibition of CDK14/Cyclin Y (unknown origin) at 200 nM relative to control; values are per cent of control
[15] = Cmax in mouse at 5 mg/kg, po; assay type: ADME, organism-based; conditions: in vivo

Chain of Cyclin-dependent kinase 7 (Homo sapiens) (P50613 whole entry): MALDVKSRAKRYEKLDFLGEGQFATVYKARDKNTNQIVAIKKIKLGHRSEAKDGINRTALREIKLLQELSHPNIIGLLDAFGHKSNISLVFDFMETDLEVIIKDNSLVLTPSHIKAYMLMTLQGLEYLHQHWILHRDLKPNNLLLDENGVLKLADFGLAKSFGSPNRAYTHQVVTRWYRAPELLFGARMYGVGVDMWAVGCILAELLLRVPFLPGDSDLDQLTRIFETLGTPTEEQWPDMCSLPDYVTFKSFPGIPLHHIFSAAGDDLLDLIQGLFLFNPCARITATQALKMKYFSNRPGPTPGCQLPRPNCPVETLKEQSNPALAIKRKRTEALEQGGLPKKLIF
Chain of Cytochrome P450 3A4 (P08684 whole entry): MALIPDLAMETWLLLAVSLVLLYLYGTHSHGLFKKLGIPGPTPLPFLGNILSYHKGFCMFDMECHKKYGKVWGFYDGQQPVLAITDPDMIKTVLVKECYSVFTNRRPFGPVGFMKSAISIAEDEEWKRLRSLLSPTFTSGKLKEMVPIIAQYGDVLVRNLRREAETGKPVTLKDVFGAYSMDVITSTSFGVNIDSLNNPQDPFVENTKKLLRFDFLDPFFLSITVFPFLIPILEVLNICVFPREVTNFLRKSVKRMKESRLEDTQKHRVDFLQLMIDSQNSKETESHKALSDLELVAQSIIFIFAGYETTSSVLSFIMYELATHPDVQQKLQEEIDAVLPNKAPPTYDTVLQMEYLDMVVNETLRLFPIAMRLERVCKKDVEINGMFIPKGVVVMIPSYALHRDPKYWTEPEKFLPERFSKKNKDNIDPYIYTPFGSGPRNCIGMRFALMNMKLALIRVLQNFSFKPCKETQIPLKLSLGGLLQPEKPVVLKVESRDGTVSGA
Chain of Serine/threonine-protein kinase D2 (Homo sapiens) (Q9BZL6 whole entry): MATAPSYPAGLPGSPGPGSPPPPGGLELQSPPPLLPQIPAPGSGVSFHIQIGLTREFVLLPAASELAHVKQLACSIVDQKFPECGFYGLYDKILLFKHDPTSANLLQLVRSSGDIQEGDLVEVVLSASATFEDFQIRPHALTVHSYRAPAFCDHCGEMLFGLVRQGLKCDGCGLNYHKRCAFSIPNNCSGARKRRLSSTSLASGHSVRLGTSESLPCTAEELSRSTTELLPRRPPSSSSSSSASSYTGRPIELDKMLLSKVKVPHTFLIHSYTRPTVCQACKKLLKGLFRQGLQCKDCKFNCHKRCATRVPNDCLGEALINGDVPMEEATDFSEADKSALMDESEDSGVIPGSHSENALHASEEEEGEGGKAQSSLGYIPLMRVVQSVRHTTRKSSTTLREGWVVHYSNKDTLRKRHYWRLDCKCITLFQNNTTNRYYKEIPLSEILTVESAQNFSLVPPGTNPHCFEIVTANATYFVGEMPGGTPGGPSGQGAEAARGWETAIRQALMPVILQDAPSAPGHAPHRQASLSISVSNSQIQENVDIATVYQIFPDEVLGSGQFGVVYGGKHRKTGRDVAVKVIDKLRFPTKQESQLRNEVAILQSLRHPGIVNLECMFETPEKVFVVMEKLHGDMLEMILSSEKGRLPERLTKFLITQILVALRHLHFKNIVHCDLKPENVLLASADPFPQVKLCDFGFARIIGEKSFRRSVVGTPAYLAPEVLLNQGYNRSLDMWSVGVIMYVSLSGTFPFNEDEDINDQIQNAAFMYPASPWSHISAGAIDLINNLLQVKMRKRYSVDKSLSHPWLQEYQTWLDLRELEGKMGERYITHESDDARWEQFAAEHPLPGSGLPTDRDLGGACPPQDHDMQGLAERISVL
Chain of Serine/threonine-protein kinase TAO1 (Homo sapiens) (Q7L7X3 whole entry): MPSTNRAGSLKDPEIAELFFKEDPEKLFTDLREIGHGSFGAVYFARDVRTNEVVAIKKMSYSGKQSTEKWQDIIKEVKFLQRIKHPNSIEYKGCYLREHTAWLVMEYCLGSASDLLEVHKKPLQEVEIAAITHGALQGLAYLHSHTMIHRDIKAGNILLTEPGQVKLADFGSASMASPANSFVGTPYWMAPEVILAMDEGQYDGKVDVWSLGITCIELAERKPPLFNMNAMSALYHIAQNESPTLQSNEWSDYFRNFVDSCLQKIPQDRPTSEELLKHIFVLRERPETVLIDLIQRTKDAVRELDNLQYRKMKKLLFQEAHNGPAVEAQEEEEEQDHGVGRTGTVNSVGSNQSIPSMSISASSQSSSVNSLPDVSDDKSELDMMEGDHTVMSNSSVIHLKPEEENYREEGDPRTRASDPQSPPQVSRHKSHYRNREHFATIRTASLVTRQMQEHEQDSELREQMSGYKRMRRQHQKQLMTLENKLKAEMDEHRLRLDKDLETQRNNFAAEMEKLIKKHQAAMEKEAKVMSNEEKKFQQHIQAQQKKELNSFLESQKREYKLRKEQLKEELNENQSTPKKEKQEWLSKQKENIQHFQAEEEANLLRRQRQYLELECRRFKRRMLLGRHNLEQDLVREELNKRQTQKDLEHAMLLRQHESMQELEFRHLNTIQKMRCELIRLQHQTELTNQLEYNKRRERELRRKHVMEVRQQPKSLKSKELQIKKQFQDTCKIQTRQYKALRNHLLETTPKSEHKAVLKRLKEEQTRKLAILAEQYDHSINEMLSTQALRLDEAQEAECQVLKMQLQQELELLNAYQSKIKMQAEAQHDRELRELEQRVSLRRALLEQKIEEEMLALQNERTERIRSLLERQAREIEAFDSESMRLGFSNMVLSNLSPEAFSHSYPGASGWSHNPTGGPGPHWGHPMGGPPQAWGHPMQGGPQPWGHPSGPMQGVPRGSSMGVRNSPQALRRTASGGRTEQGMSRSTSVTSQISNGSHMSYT
Chain of Serine/threonine-protein kinase TAO1 (Q7L7X3 whole entry): as above

- clearance [1]: 1.2 mL/min/kg
- half-life [2]: 7.8 h
- IC50 (Cytochrome P450 3A4): 5.2 µM
- AUC(0-t) [3]: 938 ng·h/mL
- residual activity [4]: 24%
- IC50 [5]: 0.546 µM
- fraction unbound [7]: 0.044
- residual activity [8]: 0.35%
- half-life [10]: 1.4 h
- bioavailability [11]: 78.7%
- fraction unbound [12]: 0.043
- residual activity (CDK18/Cyclin Y): 2.9%
- residual activity [13]: 20%
- residual activity [14]: 1.3%
- Cmax [15]: 355 ng/mL
Structure (SMILES): CN1CC(F)(F)CCN(C)[C@H]2CC[C@@H](C2)Nc2ncc(C(F)(F)F)c(n2)-c2c[nH]c3c(P(C)(C)=O)c(ccc23)C1=O
- inhibition in vivo at 3 mg/kg (HCC70): 120%
- Activity [6]: Non-toxic
- Activity (Mus musculus): Dose-dependent-effect
- inhibition in vivo at 10 mg/kg (OVCAR-3): 111%
- half-life [9]: 1.6 h
